Source: US8592581B2, “Trisubstituted purine derivatives” (Cyclacel Limited, priority 2007, dated 2013)
Like-named read-outs stand apart in the source and are kept apart here.

Assays:
CDK2/cyclin A = CDK2/cyclin A (Homo sapiens (Human), UniProt P24941); assay: In-vitro recombinant kinase assay CDK2/cyclin A; assay type: biochemical
Protocol: (§1) To evaluate the in-vitro kinase potency of the compounds, they were screened against CDK 2 and CDK9. Kinase assays were performed in 96-well plates using recombinant CDK/cyclins generated at Cyclacel. Ltd Dundee, UK. CDK2 and CDK9 assays were performed in a total volume of 25 μl in assay buffer (25 mM b-glycerophosphate, 20 mM MOPS, 5 mM EGTA, 1 mM DTT and 1 mM NaVO3, pH 7.4), into which were added 2-4 μg of active enzyme with appropriate substrates (purified histone H1 for CDK2/cyclin E, and CDK2/cyclin A, biotinyl-Ahx-(YSPTSPS)4 for CDK9/cyclin T1). […] CDK2 reactions were stopped by addition of 25 μl of 75 mM phosphoric acid, followed by filtration through P81 filterplates (Whatman Polyfiltronics, Kent, UK). For CDK9, the reaction was stopped by addition of 25 μl of 75 mM phosphoric acid, then 5 μl of 10 mg/ml avidin was added to each well and further incubated for 2 min followed by filtration as per CDK2 assay. After washing 3 times with 75 mM orthophosphoric acid, plates were dried, scintillant added and incorporated radioactivity measured in a scintillation counter (TopCount, Packard Instruments, Pangbourne, Berks, UK). Compounds for kinase assay were made up as 10 mM stocks in DMSO and diluted into 10% DMSO in assay buffer.
as §1

[1] = test system: H460 non-small cell lung cancer (NSCLC) cell line; assay: Alamar blue cytotoxicity assay in H460 NSCLC tumour cell line; assay type: cell-based; details: for Fold increase in potency: H460 cellular IC50 compared with seliciclib; for IC50: H460 cells, 72 hours, average of three independent experiments
Protocol: In order to determine the cellular potency of the compounds, the cytotoxicity of each compound was determined against the H460 non-small cell lung cancer (NSCLC) cell line. Standard cytotoxicity methods were performed as follows: H460 cells were seeded in 96-well plates appropriately for their doubling time (3000 cells per well) in RPMI media containing 10% FCS and incubated overnight at 37° C., 5% CO2. The media was removed and 100 μl fresh media containing increasing concentrations of appropriate compound was added and the cells incubated for 72 hours at 37° C., 5% CO2. A 10% stock of alamar blue (Roche, Lewes, United Kingdom) was prepared in medium and 100 μl added to the cells which were incubated for 2 hours.

CDK9/cyclin T1 = CDK9/cyclin T1 (Homo sapiens (Human), UniProt P50750); assay: In-vitro recombinant kinase assay CDK9/cyclin T1; assay type: biochemical; details: Table 2; average of duplicate points
Sequence of CDK9/cyclin T1 (P50750 whole entry, species assumed): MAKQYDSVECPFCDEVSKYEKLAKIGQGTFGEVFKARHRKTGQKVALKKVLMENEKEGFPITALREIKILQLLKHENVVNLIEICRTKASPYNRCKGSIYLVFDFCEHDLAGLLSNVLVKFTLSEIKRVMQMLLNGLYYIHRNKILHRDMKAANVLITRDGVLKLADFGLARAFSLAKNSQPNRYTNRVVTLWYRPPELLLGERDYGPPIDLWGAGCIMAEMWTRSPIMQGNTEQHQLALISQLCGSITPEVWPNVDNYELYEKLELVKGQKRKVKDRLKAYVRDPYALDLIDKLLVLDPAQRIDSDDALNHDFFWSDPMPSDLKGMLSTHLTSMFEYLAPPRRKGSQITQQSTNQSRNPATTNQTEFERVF
Sequence of CDK9/cyclin T1 (O60563 whole entry partner, species assumed): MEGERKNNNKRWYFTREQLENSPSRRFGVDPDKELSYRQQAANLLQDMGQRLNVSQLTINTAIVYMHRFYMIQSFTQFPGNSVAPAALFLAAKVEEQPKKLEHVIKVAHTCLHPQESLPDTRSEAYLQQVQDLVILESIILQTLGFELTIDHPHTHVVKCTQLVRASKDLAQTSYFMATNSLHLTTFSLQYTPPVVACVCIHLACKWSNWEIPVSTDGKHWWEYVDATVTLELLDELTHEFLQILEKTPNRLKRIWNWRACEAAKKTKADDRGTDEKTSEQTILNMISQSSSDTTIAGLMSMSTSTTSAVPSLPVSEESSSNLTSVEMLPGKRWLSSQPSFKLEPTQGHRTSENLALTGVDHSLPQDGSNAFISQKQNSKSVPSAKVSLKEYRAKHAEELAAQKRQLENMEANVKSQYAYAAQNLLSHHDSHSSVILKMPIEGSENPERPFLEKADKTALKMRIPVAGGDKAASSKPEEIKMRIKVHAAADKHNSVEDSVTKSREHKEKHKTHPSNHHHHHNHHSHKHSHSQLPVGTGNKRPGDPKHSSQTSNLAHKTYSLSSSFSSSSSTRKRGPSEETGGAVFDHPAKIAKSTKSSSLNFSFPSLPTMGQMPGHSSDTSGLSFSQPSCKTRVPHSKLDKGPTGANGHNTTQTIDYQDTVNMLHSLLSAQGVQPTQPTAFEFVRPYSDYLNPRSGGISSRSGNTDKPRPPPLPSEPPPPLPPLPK
Protocol: as §1, §1

CDK2/cyclin E = CDK2/cyclin E (Homo sapiens (Human), UniProt P24941); assay: In-vitro recombinant kinase assay CDK2/cyclin E; assay type: biochemical
Protocol: as §1, §1

CDK1B = CDK1B (Homo sapiens (Human), UniProt P06493); assay: In-vitro kinase assay screen CDK1B (Table 4); assay type: biochemical
Sequence of CDK1B (P06493 whole entry): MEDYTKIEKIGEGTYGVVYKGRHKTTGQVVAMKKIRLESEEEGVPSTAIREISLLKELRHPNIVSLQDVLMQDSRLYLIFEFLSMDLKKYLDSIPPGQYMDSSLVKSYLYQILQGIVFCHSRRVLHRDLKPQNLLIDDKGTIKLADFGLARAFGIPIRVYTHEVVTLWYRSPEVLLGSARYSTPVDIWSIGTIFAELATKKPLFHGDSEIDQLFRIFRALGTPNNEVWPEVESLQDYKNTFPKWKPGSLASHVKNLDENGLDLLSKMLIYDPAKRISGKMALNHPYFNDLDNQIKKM
Sequence of CDK1B (P14635 whole entry partner): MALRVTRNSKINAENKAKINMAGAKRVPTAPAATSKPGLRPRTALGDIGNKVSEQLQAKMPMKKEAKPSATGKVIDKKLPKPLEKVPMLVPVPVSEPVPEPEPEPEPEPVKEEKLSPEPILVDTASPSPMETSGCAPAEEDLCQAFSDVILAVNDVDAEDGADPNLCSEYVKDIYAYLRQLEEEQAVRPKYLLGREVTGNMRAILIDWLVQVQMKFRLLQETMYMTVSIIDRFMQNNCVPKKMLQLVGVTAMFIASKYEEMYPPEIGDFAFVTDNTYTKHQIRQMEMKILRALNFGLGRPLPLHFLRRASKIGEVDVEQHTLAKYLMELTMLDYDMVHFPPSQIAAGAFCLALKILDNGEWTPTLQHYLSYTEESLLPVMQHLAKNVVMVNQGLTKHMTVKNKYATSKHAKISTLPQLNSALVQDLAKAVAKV

[2] = Table 2, average of duplicate points, read-out: CDK2/Cyclin E Average IC50
[3] = Table 2, average of duplicate points, read-out: CDK2/Cyclin A Average IC50
[4] = Table 4, Run 1, read-out: CDK2A Run 1
[5] = Table 4, Run 2, read-out: CDK2A Run 2
[6] = Table 4, Run 1, read-out: CDK1B Run 1
[7] = Table 4, Run 2, read-out: CDK1B Run 2
[8] = Table 4, mean of two runs, read-out: CDK1B Mean
[9] = Table 4, Run 1, read-out: CDK2E Run 1
[10] = Table 4, Run 2, read-out: CDK2E Run 2
[11] = Table 4, mean of two runs, read-out: CDK2E Mean

Compound | IC50 (CDK9/cyclin T1) [µM] | IC50 (CDK2/cyclin E; [2]) [µM] | Fold increase in potency [1] | IC50 ([1]; Homo sapiens, NCI-H460, 72 h) [µM] | also measured
CC[C@H](Nc1nc(NCc2ccc(C)nc2)c2ncn(C(C)C)c2n1)[C@@H](C)O [[2], 2R,3S-3-(9-isopropyl-6-((6-methylpyridin-3-yl)methylamino)-9H-purin-2-ylamino)pentan-2-ol] | 3.63 | 0.52 | 0.3 | 35 | IC50 (CDK2/cyclin A): 3.25 µM
CC[C@H](Nc1nc(NCc2cccnc2)c2ncn(CC3CC3)c2n1)[C@@H](C)O [[5], 2R,3S-3-(9-(Cyclopropylmethyl)-6-(pyridin-3-ylmethylamino)-9H-purin-2-ylamino)pentan-2-ol] | 7.89 | 0.83 | 0.3 | 34.4 | 
CC[C@H](Nc1nc(NC2CCC2)c2ncn(C(C)C)c2n1)[C@@H](C)O [[8], 2R,3S-3-(6-(Cyclobutylamino)-9-isopropyl-9H-purin-2-ylamino)pentan-2-ol] | 0.5 | 0.16 | 4.1 | 2.9 | 
CC(C)n1cnc2c(NCc3cccnc3)nc(NC[C@@H](C)O)nc21 [[14], (R)-1-(9-Isopropyl-6-(pyridin-3-ylmethylamino)-9H-purin-2-ylamino)propan-2-ol] | 6.53 | 0.29 | 0.7 | 16.7 | 
CC(C)n1cnc2c(NCc3cccnc3)nc(NCC(O)C(F)(F)F)nc21 (stereo not drawn) [[15], 1,1,1-Trifluoro-3-(9-isopropyl-6-(pyridin-3-ylmethylamino)-9H-purin-2-ylamino)propan-2-ol] | 7.4 | 0.57 | 0.6 | 20.3 | 
CCC(Nc1nc(NCc2cccnc2)c2ncn(C(C)C)c2n1)C(O)C(F)(F)F (stereo not drawn) [[16], 1,1,1-Trifluoro-3-(9-isopropyl-6-(pyridin-3-ylmethylamino)-9H-purin-2-ylamino)pentan-2-ol] | 2.14 | 0.09 | 2.9 | 4.1 | 
CCC(Nc1nc(NCc2ccc(C(F)(F)F)nc2)c2ncn(C(C)C)c2n1)C(O)C(F)(F)F (stereo not drawn) [[17], 1,1,1-Trifluoro-3-(9-isopropyl-6-((6-(trifluoromethyl)pyridin-3-yl)methylamino)-9H-2-ylamino)pentan-2-ol] |  |  |  |  | IC50 (CDK2/cyclin A; [4]): 0.305 µM; IC50 (CDK2/cyclin A; [5]): 0.431 µM; IC50 (CDK2/cyclin A; Table 4, mean of two runs, read-out: CDK2A Mean): 0.368 µM; IC50 (CDK1B; [6]): 6.12 µM; IC50 (CDK1B; [7]): 11.2 µM; IC50 (CDK1B; [8]): 8.68 µM; IC50 (CDK2/cyclin E; [9]): 0.318 µM; IC50 (CDK2/cyclin E; [10]): 0.307 µM; IC50 (CDK2/cyclin E; [11]): 0.313 µM
CC(C)n1cnc2c(NCc3cccnc3)nc(NCC(O)(C(F)(F)F)C(F)(F)F)nc21 [[18], 1,1,1,3,3,3-Hexafluoro-2-((9-isopropyl-6-(pyridine-3-ylmethylamino)-9H-purin-2-ylamino)methyl)propan-2-ol] |  |  |  |  | IC50 (CDK2/cyclin A; [4]): 0.704 µM; IC50 (CDK2/cyclin A; [5]): 1.19 µM; IC50 (CDK1B; [6]): 5.88 µM; IC50 (CDK1B; [7]): 6.72 µM; IC50 (CDK1B; [8]): 6.3 µM; IC50 (CDK2/cyclin E; [9]): 0.336 µM; IC50 (CDK2/cyclin E; [10]): 0.279 µM; IC50 (CDK2/cyclin E; [11]): 0.308 µM

Further lines, with some results ahead:

IC50 (CDK9/cyclin T1) [µM] | IC50 (CDK2/cyclin E; [2]) [µM] | Compound | Fold increase in potency [1] | IC50 ([1]; Homo sapiens, NCI-H460, 72 h) [µM] | also measured
0.06 | 0.01 | CC[C@H](Nc1nc(NCc2cccc(Cl)c2)c2ncn(C(C)C)c2n1)[C@@H](C)O [[3], 2R,3S-3-(6-(3-Chlorobenzylamino)-9-isopropyl-9H-purin-2-ylamino)pentan-2-ol] | 8.0 | 1.5 | IC50 (CDK2/cyclin A; [3]): 0.1 µM
0.08 | 0.02 | CC[C@H](Nc1nc(NCc2cccc(F)c2)c2ncn(C(C)C)c2n1)[C@@H](C)O [[4], 2R,3S-3-[6-(3-Fluorobenzylamino)-9-isopropyl-9H-purin-2-ylamino]-pentan-2-ol] | 8.0 | 1.5 | IC50 (CDK2/cyclin A; [3]): 0.12 µM
0.27 | 0.05 | CC[C@H](Nc1nc(NC2CC2)c2ncn(C(C)C)c2n1)[C@@H](C)O [[6]] | 7.1 | 1.7 | 
0.38 | 0.04 | CC[C@H](Nc1nc(NCC2CC2)c2ncn(C(C)C)c2n1)[C@@H](C)O [[7], 2R,3S-3-(6-(Cyclopropylmethylamino)-9-isopropyl-9H-purine-2-ylamino)pentan-2-ol] | 5.0 | 2.4 | 
0.61 | 0.04 | CC[C@H](Nc1nc(NCc2ccncc2)c2ncn(C(C)C)c2n1)[C@@H](C)O [[9], 2R,3S-3-(9-Isopropyl-6-(pyridine-4-ylmethylamino)-9H-purin-2-ylamino)pentan-2-ol] | 5.2 | 2.3 | 
1.04 | 0.05 | CC[C@H](Nc1nc(NCc2cc(C)nc(C)c2)c2ncn(C(C)C)c2n1)[C@@H](C)O [[10], 2R,3S-3-(9-Isopropyl-6-(2,6-dimethylpyridine-4-ylmethylamino)-9H-purin-2-ylamino)pentan-2-ol] | 5.0 | 2.4 | 
0.25 | 0.04 | CC[C@H](Nc1nc(NCc2ccc(C(F)(F)F)nc2)c2ncn(C(C)C)c2n1)[C@@H](C)O [[11], 2R,3S-3-(9-Isopropyl-6-((6-(trifluoromethyl)pyridine-3-yl)methylamino)-9H-purin-2-ylamino)pentan-2-ol] | 13.3 | < 1 | IC50 [1]: 0.9 µM
2.04 | 0.05 | CC[C@H](Nc1nc(NCc2cccc(C)n2)c2ncn(C(C)C)c2n1)[C@@H](C)O [[12], 2R,3S-3-(9-Isopropyl-6-((6-methylpyridin-2-yl)methylamino)-9H-purin-2-ylamino)pentan-2-ol] | 1.7 | 7.2 | 
5.84 | 0.77 | CC[C@H](Nc1nc(NCc2ncccc2C)c2ncn(C(C)C)c2n1)[C@@H](C)O [[13], 2R,3S-3-(9-Isopropyl-6-((3-methylpyridin-2-yl)methylamino)-9H-purin-2-ylamino)pentan-2-ol] | 0.6 | 19.4 | 
